Data from US20220265817A1, “THERAPEUTIC COMPOSITIONS AND METHODS FOR TREATING HEPATITIS B” (priority 2017, published 2022).
“And” between values parts separate entries of the source, which are not always exact repeats. Identical values can stand only once. Like-named read-outs stand apart in the source and are kept apart here.

Columns and labels:
Assay in all cases: microbe, parasite or virus in culture
Format in all cases: cell-based
[1] = test system: D type HBV in primary human hepatocytes; conditions: for EC50: PHH
Description: (§1) The mouse liver perfusion was applied to isolate PHHs. The isolated hepatocytes were further purified by Percoll. The cells were resuspended with culture media and seeded into the 96-well plates (6×10^4 cell/well) or 48-well plates (1.2×10^5 cell/well). The PHHs were infected with a D type HBV one day post seeding (day 1).
(§2) On day 2, the test compounds were diluted and added into the cell culture plates. The culture media containing the compounds were refreshed every other day. The cell culture supernatants were collected on day 8 for the HBV DNA and antigen determinations.
(§3) The compounds were tested at 7 concentrations, 3-fold dilution, in triplicate.
(§4) Two compounds were tested at 5×5 matrix, in triplicate plates.
DNA in the culture supernatants harvested on days 8 were isolated with QIAamp 96 DNA Blood Kit (Qiagen-51161). For each sample, 100 μl of the culture supernatants was used to extract DNA. The DNA was eluted with 100 μl, 150 μl or 180 μl of AE. HBV DNA in the culture supernatants was quantified by qPCR. The combination effect was analyzed by the MacSynergy software. The primers are described below.

[2] = test system: D type HBV in primary human hepatocytes (HBsAg)
Description: as §1, §2, §3, §4
(§5) HBsAg/HBeAg in the culture supernatants harvested on days 8 were measured by the HBsAg/HBeAg ELISA kit (Autobio) according to the manual. The samples were diluted with PBS to get the signal in the range of the standard curve. The inhibition rates were calculated with the formula below. The combination effect was analyzed by the MacSynergy software.
% Inh. HBsAg=[1-HBsAg quantity of sample/HBV quantity of DMSO control]×100.

[3] = test system: D type HBV in primary human hepatocytes (HBeAg)
Description: as §1, §2, §3, §4, §5
% Inh. HBeAg=[1-HBeAg quantity of sample/HBV quantity of DMSO control]×100.

[4] = Hepatitis B virus, Hepatocyte, 432 h, read-out: Inhibitor B EC50
[5] = Hepatitis B virus, Hepatocyte, 456 h, read-out: Inhibitor A EC50

CNC(=O)N[C@H]1CCOc2c(C(=O)Nc3ccc(F)c(F)c3)ccc(F)c21 [Compound 23]
inhibition at 0.02469 µM ([1]; Hepatitis B virus, Hepatocyte, read-out: AVERAGE % […] DNA, compound 23 24.69 nM alone (TDF study)): -15.3% | inhibition at 0.024691 µM ([1]; Hepatitis B virus, Hepatocyte, read-out: AVERAGE % […] DNA, compound 23 24.691 nM alone (TAF study)): -4.57% | inhibition at 0.07407 µM ([1]; Hepatitis B virus, Hepatocyte, read-out: AVERAGE % […] DNA, compound 23 74.07 nM alone (TDF study)): -36.6% | inhibition at 0.074074 µM ([1]; Hepatitis B virus, Hepatocyte, read-out: AVERAGE % […] DNA, compound 23 74.074 nM alone (TAF study)): -2.49% | inhibition at 0.22222 µM ([1]; Hepatitis B virus, Hepatocyte, read-out: AVERAGE % […] DNA, compound 23 222.22 nM alone (TAF study)): 11.1% | inhibition at 0.22222 µM ([1]; Hepatitis B virus, Hepatocyte, read-out: AVERAGE % […] DNA, compound 23 222.22 nM alone (TDF study)): 0.78% | inhibition at 0.66667 µM ([1]; Hepatitis B virus, Hepatocyte, read-out: AVERAGE % […] DNA, compound 23 666.67 nM alone (TAF study)): 30.5% | inhibition at 0.66667 µM ([1]; Hepatitis B virus, Hepatocyte, read-out: AVERAGE % […] DNA, compound 23 666.67 nM alone (TDF study)): 30.4% | inhibition at 2 µM ([1]; Hepatitis B virus, Hepatocyte, read-out: AVERAGE % […] DNA, compound 23 2000 nM alone (TAF study)): 58.1% | inhibition at 2 µM ([1]; Hepatitis B virus, Hepatocyte, read-out: AVERAGE % […] DNA, compound 23 2000.00 nM alone (TDF study)): 70% | EC50 ([1]; Hepatitis B virus, Hepatocyte, HBV DNA, determined in an earlier separate experiment, read-out: Inhibitor B EC50): 230 nM | inhibition at 0.02469 µM ([2]; Hepatitis B virus, Hepatocyte, read-out: AVERAGE % INHIBITION HBsAg, compound 23 24.69 nM alone (TDF study)): -13.9% | inhibition at 0.024691 µM ([2]; Hepatitis B virus, Hepatocyte, read-out: AVERAGE % INHIBITION HBsAg, compound 23 24.691 nM alone (TAF study)): 0.77% | inhibition at 0.07407 µM ([2]; Hepatitis B virus, Hepatocyte, read-out: AVERAGE % INHIBITION HBsAg, compound 23 74.07 nM alone (TDF study)): -10.9% | inhibition at 0.074074 µM ([2]; Hepatitis B virus, Hepatocyte, read-out: AVERAGE % INHIBITION HBsAg, compound 23 74.074 nM alone (TAF study)): -5.27% | inhibition at 0.22222 µM ([2]; Hepatitis B virus, Hepatocyte, read-out: AVERAGE % INHIBITION HBsAg, compound 23 222.22 nM alone (TAF study)): 4.83% | inhibition at 0.22222 µM ([2]; Hepatitis B virus, Hepatocyte, read-out: AVERAGE % INHIBITION HBsAg, compound 23 222.22 nM alone (TDF study)): -11.6% | inhibition at 0.66667 µM ([2]; Hepatitis B virus, Hepatocyte, read-out: AVERAGE % INHIBITION HBsAg, compound 23 666.67 nM alone (TAF study)): 1.95% | inhibition at 0.66667 µM ([2]; Hepatitis B virus, Hepatocyte, read-out: AVERAGE % INHIBITION HBsAg, compound 23 666.67 nM alone (TDF study)): -4.45% | inhibition at 2 µM ([2]; Hepatitis B virus, Hepatocyte, read-out: AVERAGE % INHIBITION HBsAg, compound 23 2000.00 nM alone (TDF study)): 0.48% | EC50 ([2]; Hepatitis B virus, Hepatocyte, read-out: Inhibitor B EC50): 4360 nM | inhibition at 0.02469 µM ([3]; Hepatitis B virus, Hepatocyte, read-out: AVERAGE % INHIBITION HBeAg, compound 23 24.69 nM alone): -8.82% | inhibition at 0.07407 µM ([3]; Hepatitis B virus, Hepatocyte, read-out: AVERAGE % INHIBITION HBeAg, compound 23 74.07 nM alone): -6.36% | inhibition at 0.22222 µM ([3]; Hepatitis B virus, Hepatocyte, read-out: AVERAGE % INHIBITION HBeAg, compound 23 222.22 nM alone): -12.7% | inhibition at 0.66667 µM ([3]; Hepatitis B virus, Hepatocyte, read-out: AVERAGE % INHIBITION HBeAg, compound 23 666.67 nM alone): -7.94% | inhibition at 2 µM ([3]; Hepatitis B virus, Hepatocyte, read-out: AVERAGE % INHIBITION HBeAg, compound 23 2000.00 nM alone): -1.09% | EC50 ([3]; Hepatitis B virus, Hepatocyte, HBeAg, PHH, determined in an earlier separate experiment, read-out: Inhibitor B EC50): 4530 nM

COCCCOc1cc2c(cc1OC)-c1cc(=O)c(C(=O)O)cn1C(C(C)C)C2 (centres unmarked) [Compound 25]
AVERAGE % INHIBITION HBV DNA ([1]; COMPOUND 25 0.37 nM alone): −51.8% and −46.48% | AVERAGE % INHIBITION HBV DNA ([1]; COMPOUND 25 3.33 nM alone): 16.41% | AVERAGE % INHIBITION HBV DNA ([1]; COMPOUND 25 10.00 nM alone): 37.39% | EC50 ([1]; Hepatitis B virus, Hepatocyte, 432 h, HBV DNA endpoint, determined in an earlier separate experiment (Table 18d), read-out: Inhibitor B EC50): 0.654 nM | EC50 ([1]; Hepatitis B virus, Hepatocyte, 456 h, HBV DNA endpoint, determined in an earlier separate experiment (Table 19d), read-out: Inhibitor A EC50): 0.654 nM | inhibition at 0.00333 µM ([1]; Hepatitis B virus, Hepatocyte, read-out: AVERAGE % […] DNA, COMPOUND 25 3.33 nM alone, read-out: AVERAGE % INHIBITION HBV DNA): 15.2% | inhibition at 0.01 µM ([1]; Hepatitis B virus, Hepatocyte, read-out: AVERAGE % […] DNA, COMPOUND 25 10.00 nM alone, read-out: AVERAGE % INHIBITION HBV DNA): 28% | inhibition at 0.12 µM ([1]; Hepatitis B virus, Hepatocyte, read-out: AVERAGE % […] DNA, compound 25 0.12 μM alone): -14.4% | inhibition at 0.37 µM ([1]; Hepatitis B virus, Hepatocyte, read-out: AVERAGE % […] DNA, compound 25 0.37 μM alone): -9.87% | inhibition at 3.33 µM ([1]; Hepatitis B virus, Hepatocyte, read-out: AVERAGE % […] DNA, compound 25 3.33 μM alone): 32.6% | inhibition at 10 µM ([1]; Hepatitis B virus, Hepatocyte, read-out: AVERAGE % […] DNA, compound 25 10.00 μM alone): 53.8% | EC50 ([1]; Hepatitis B virus, Hepatocyte, determined in an earlier separate experiment, read-out: Inhibitor A EC50 HBV DNA): 0.653 nM | AVERAGE % INHIBITION (HBsAg) ([2]; COMPOUND 25 0.12 nM alone): 3.68% and 9.32% | AVERAGE % INHIBITION (HBsAg) ([2]; COMPOUND 25 3.33 nM alone): 20.81% | AVERAGE % INHIBITION (HBsAg) ([2]; COMPOUND 25 10.00 nM alone): 42.95% | EC50 [2, 4]: 4.5 nM | EC50 [2, 5]: 4.5 nM | inhibition at 0.12 µM ([2]; Hepatitis B virus, Hepatocyte, COMPOUND 25 0.12 μM alone): -5.64% | inhibition at 0.37 µM ([2]; Hepatitis B virus, Hepatocyte, COMPOUND 25 0.37 μM alone): -7.52% | inhibition at 0.00333 µM ([2]; Hepatitis B virus, Hepatocyte, read-out: AVERAGE % INHIBITION HBsAg, COMPOUND 25 3.33 nM alone): 13.1% | inhibition at 0.01 µM ([2]; Hepatitis B virus, Hepatocyte, read-out: AVERAGE % INHIBITION HBsAg, COMPOUND 25 10.00 nM alone): 33% | inhibition at 3.33 µM ([2]; Hepatitis B virus, Hepatocyte, read-out: AVERAGE % INHIBITION HBsAg, COMPOUND 25 3.33 μM alone): 8.81% | inhibition at 10 µM ([2]; Hepatitis B virus, Hepatocyte, read-out: AVERAGE % INHIBITION HBsAg, COMPOUND 25 10.00 μM alone): 42.5% | EC50 ([2]; Hepatitis B virus, Hepatocyte, read-out: Inhibitor A EC50 HBsAg): 4.5 nM | AVERAGE % INHIBITION HBeAg ([3]; COMPOUND 25 0.12 nM alone): 4.8% | AVERAGE % INHIBITION HBeAg ([3]; COMPOUND 25 0.37 nM alone): −0.51% and 2.9% | AVERAGE % INHIBITION HBeAg ([3]; COMPOUND 25 3.33 nM alone): 13.94% | AVERAGE % INHIBITION HBeAg ([3]; COMPOUND 25 10.00 nM alone): 28.42% | EC50 [3, 4]: 5.75 nM | EC50 [3, 5]: 5.75 nM | inhibition at 0.00012 µM ([3]; Hepatitis B virus, Hepatocyte, read-out: AVERAGE % INHIBITION HBeAg, COMPOUND 25 0.12 nM alone): 5.33% | inhibition at 0.00333 µM ([3]; Hepatitis B virus, Hepatocyte, read-out: AVERAGE % INHIBITION HBeAg, COMPOUND 25 3.33 nM alone): 8.74% | inhibition at 0.01 µM ([3]; Hepatitis B virus, Hepatocyte, read-out: AVERAGE % INHIBITION HBeAg, COMPOUND 25 10.00 nM alone): 33.2% | inhibition at 0.12 µM ([3]; Hepatitis B virus, Hepatocyte, read-out: AVERAGE % INHIBITION HBeAg, COMPOUND 25 0.12 μM alone): -11.2% | inhibition at 0.37 µM ([3]; Hepatitis B virus, Hepatocyte, read-out: AVERAGE % INHIBITION HBeAg, COMPOUND 25 0.37 μM alone): -13.8% | inhibition at 3.33 µM ([3]; Hepatitis B virus, Hepatocyte, read-out: AVERAGE % INHIBITION HBeAg, COMPOUND 25 3.33 μM alone): -7.31% | inhibition at 10 µM ([3]; Hepatitis B virus, Hepatocyte, read-out: AVERAGE % INHIBITION HBeAg, COMPOUND 25 10.00 μM alone): 22% | EC50 ([3]; Hepatitis B virus, Hepatocyte, read-out: Inhibitor A EC50 HBeAg): 5.75 nM
